Results: patent US8614327B2 (Vertex Pharmaceuticals Incorporated, priority 2004, dated 2013)

Target: T1, ΔF508-CFTR (Homo sapiens, UniProt P13569, DEL508-508)
T1 construct: expressed in transfected cells
Test: Membrane potential optical (FRET/VIPR) assay, identification of potentiator compounds
Assay type: cell-based
Settings: Table 3, assay not given; for % Activity: relative efficacy
In short: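 NIH3T3 mouse fibroblasts stably expressing ΔF508-CFTR, temperature-corrected 24 h at 27° C., read on VIPR by FRET between CC2-DMPE and DiSBAC2(3). Potentiators identified in a double-addition format, first adding chloride-free (gluconate) medium with or without compound.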

T1 sequence (P13569 with tags, fused parts or gaps DEL508-508): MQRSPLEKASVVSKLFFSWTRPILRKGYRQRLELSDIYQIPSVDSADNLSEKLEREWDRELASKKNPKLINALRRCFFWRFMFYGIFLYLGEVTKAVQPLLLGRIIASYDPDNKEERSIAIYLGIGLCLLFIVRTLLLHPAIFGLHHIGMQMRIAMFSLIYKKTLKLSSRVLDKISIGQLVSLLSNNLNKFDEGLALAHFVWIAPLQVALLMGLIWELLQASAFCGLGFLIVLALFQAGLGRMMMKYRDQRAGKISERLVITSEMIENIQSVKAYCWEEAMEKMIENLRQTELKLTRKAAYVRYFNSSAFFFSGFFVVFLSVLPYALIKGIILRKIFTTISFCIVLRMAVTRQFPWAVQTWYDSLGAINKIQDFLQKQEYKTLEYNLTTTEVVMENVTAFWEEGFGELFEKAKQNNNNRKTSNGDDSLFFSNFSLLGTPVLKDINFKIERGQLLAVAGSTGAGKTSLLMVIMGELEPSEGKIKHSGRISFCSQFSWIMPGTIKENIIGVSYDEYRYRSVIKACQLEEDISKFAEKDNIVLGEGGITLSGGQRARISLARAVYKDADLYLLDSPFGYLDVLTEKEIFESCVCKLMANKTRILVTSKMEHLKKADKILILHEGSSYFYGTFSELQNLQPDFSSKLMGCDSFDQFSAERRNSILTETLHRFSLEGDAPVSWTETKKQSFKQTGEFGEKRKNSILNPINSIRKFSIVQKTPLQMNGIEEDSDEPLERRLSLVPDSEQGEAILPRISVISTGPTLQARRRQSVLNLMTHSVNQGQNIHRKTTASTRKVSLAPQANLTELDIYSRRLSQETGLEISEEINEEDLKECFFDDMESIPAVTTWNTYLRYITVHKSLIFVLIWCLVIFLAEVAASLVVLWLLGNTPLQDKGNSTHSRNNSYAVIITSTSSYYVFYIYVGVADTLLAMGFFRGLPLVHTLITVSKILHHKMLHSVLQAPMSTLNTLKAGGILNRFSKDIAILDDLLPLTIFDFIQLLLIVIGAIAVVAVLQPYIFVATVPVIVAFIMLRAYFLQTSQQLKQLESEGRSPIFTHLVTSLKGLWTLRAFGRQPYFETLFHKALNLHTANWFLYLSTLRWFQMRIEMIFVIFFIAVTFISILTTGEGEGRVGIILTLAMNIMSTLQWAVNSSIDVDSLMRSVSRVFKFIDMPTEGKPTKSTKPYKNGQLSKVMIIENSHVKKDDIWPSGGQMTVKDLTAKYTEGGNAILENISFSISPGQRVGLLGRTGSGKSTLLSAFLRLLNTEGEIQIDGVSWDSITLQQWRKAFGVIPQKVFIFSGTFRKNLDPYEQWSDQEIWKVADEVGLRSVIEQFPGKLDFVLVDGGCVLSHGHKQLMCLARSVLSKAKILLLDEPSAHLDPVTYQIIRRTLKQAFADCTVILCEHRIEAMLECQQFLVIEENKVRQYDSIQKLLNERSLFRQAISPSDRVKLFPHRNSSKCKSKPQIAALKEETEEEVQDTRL

EC50 | % Activity | SMILES
< 10 µM | ++ (between 25% to 100%) | Cc1cccc2[nH]cc(C(=O)Nc3ccc(N4CC[C@@H](F)C4)cc3C(F)(F)F)c(=O)c12 [Compound 541, (R)-N-(4-(3-fluoropyrrolidin-1-yl)-2-(trifluoromethyl)phenyl)-5-methyl-4-oxo-1,4-dihydroquinoline-3-carboxamide]
< 10 µM | ++ (between 25% to 100%) | CC(C)c1c[nH]c2cc(NC(=O)c3c[nH]c4ccccc4c3=O)ccc12 [Compound 357, N-(3-isopropyl-1H-indol-6-yl)-4-oxo-1H-quinoline-3-carboxamide]
 | ++ (between 25% to 100%) | CN(C)c1cc(NC(=O)c2c[nH]c3ccccc3c2=O)ccc1C(C)(C)C [Compound 485, N-(3-Dimethylamino-4-tert-butyl-phenyl)-4-oxo-1H-quinoline-3-carboxamide]
< 10 µM | ++ (between 25% to 100%) | O=C(Nc1ccc2ccn(Cc3ccccc3)c2c1)c1c[nH]c2ccccc2c1=O [Compound 203, N-(1-benzyl-1H-indol-6-yl)-4-oxo-1H-quinoline-3-carboxamide]
< 10 µM | ++ (between 25% to 100%) | O=C(Nc1cccc2cc[nH]c12)c1c[nH]c2ccccc2c1=O [Compound 37, N-(1H-indol-7-yl)-4-oxo-1H-quinoline-3-carboxamide]
 | ++ (between 25% to 100%) | COc1ccccc1-c1cc2cc[nH]c2cc1NC(=O)c1c[nH]c2ccccc2c1=O [Compound 237, N-[5-(2-methoxyphenyl)-1H-indol-6-yl]-4-oxo-1H-quinoline-3-carboxamide]
< 10 µM | ++ (between 25% to 100%) | COc1cccc(OC)c1-c1ccccc1NC(=O)c1c[nH]c2ccccc2c1=O [Compound 49, N-[2-(2,6-dimethoxyphenyl)phenyl]-4-oxo-1H-quinoline-3-carboxamide]
< 10 µM | ++ (between 25% to 100%) | O=C(Nc1ccc2c(c1)NCCCC2)c1c[nH]c2ccccc2c1=O [Compound 10, 1,4-dihydro-N-(2,3,4,5-tetrahydro-1H-benzo[b]azepin-8-yl)-4-oxoquinoline-3-carboxamide]
< 10 µM | ++ (between 25% to 100%) | CCCc1ccc(NC(=O)c2c[nH]c3ccccc3c2=O)cc1NC(=O)OC [Compound 221, [5-[(4-oxo-1H-quinolin-3-yl)carbonylamino]-2-propyl-phenyl]aminoformic acid methyl ester]
25 to 60 µM | + (<25%) | O=C(Nc1ccccc1CCO)c1c[nH]c2ccccc2c1=O [Compound 40, N-[2-(2-hydroxyethyl)phenyl]-4-oxo-1H-quinoline-3-carboxamide]
 | ++ (between 25% to 100%) | O=C(Nc1ccc(N2CCCC2)cc1)c1c[nH]c2ccccc2c1=O [Compound 674, 4-oxo-N-(4-pyrrolidin-1-ylphenyl)-1H-quinoline-3-carboxamide]
 | ++ (between 25% to 100%) | CS(=O)(=O)Nc1cc(NC(=O)c2c[nH]c3ccccc3c2=O)cc(C(F)(F)F)c1 [Compound 441, N-[3-methylsulfonylamino-5-(trifluoromethyl)phenyl]-4-oxo-1H-quinoline-3-carboxamide]
10 to 25 µM | ++ (between 25% to 100%) | CC(C)n1cc(C(=O)Nc2ccccc2C(C)(C)C)c(=O)c2ccccc21 [Compound 473, 1-isopropyl-4-oxo-N-(2-tert-butylphenyl)-1H-quinoline-3-carboxamide]
< 10 µM | ++ (between 25% to 100%) | O=C1CSc2ccc(NC(=O)c3c[nH]c4ccccc4c3=O)cc2N1 [Compound 262, 1,4-dihydro-N-(3,4-dihydro-3-oxo-2H-benzo[b][1,4]thiazin-6-yl)-4-oxoquinoline-3-carboxamide]
< 10 µM | ++ (between 25% to 100%) | COCCOCC(C)(C)c1ccc(NC(=O)c2c[nH]c3ccccc3c2=O)cc1O [Compound 126, N-[3-hydroxy-4-[2-(2-methoxyethoxy)-1,1-dimethyl-ethyl]-phenyl]-4-oxo-1H-quinoline-3-carboxamide]
< 10 µM | ++ (between 25% to 100%) | COc1ccc2[nH]cc(C(=O)Nc3cc(O)c(C4(C)CCCCC4)cc3F)c(=O)c2c1 [Compound 584, N-[2-fluoro-5-hydroxy-4-(1-methylcyclohexyl)-phenyl]-6-methoxy-4-oxo-1H-quinoline-3-carboxamide]
< 10 µM | ++ (between 25% to 100%) | O=C(Nc1csc(C(F)(F)F)c1-c1ccccc1)c1c[nH]c2ccccc2c1=O [Compound 708, 4-oxo-N-[4-phenyl-5-(trifluoromethyl)-3-thienyl]-1H-quinoline-3-carboxamide]

EC50 | % Activity | SMILES
 | ++ (between 25% to 100%) | CC(=O)N1CCCC(C)(C)c2ccc(NC(=O)c3c[nH]c4ccccc4c3=O)cc21 [Compound 109, N-(1-acetyl-2,3,4,5-tetrahydro-5,5-dimethyl-1H-benzo[b]azepin-8-yl)-1,4-dihydro-4-oxoquinoline-3-carboxamide]
< 10 µM | ++ (between 25% to 100%) | COc1ccc(NC(=O)c2c[nH]c3ccccc3c2=O)cc1 [Compound 439, N-(4-methoxyphenyl)-4-oxo-1H-quinoline-3-carboxamide]
< 10 µM | ++ (between 25% to 100%) | Cc1cccc2[nH]cc(C(=O)Nc3ccc(N4[C@H](C)CC[C@@H]4C)cc3C(F)(F)F)c(=O)c12 [Compound 592, N-(4-((2R,5S)-2,5-dimethylpyrrolidin-1-yl)-2-(trifluoromethyl)phenyl)-5-methyl-4-oxo-1,4-dihydroquinoline-3-carboxamide]
< 10 µM | ++ (between 25% to 100%) | CCc1cccc(C(C)CC)c1NC(=O)c1c[nH]c2ccccc2c1=O (centres unmarked) [Compound 322, N-(2-ethyl-6-sec-butyl-phenyl)-4-oxo-1H-quinoline-3-carboxamide]
< 10 µM | ++ (between 25% to 100%) | CCCCc1ccc(NC(=O)c2c[nH]c3ccccc3c2=O)cc1 [Compound 324, N-(4-butylphenyl)-4-oxo-1H-quinoline-3-carboxamide]
< 10 µM | ++ (between 25% to 100%) | O=C(Nc1cc(Cl)ccc1Oc1ccccc1)c1c[nH]c2ccccc2c1=O [Compound 292, N-(5-chloro-2-phenoxy-phenyl)-4-oxo-1H-quinoline-3-carboxamide]
< 10 µM | ++ (between 25% to 100%) | CC(C)(C)C(=O)Nc1ccc(NC(=O)c2c[nH]c3ccccc3c2=O)c(C(F)(F)F)c1 [Compound 556, N-[4-(2,2-dimethylpropanoylamino)-2-(trifluoromethyl)phenyl]-4-oxo-1H-quinoline-3-carboxamide]
< 10 µM | ++ (between 25% to 100%) | COc1ccc2c(=O)c(C(=O)Nc3cc(O)c(C(C)(C)C)cc3C(C)(C)C)c[nH]c2c1 [Compound 583, N-(5-hydroxy-2,4-ditert-butyl-phenyl)-7-methoxy-4-oxo-1H-quinoline-3-carboxamide]
< 10 µM | ++ (between 25% to 100%) | CC(C)(C)c1ccc(NC(=O)c2c[nH]c3ccccc3c2=O)cc1N1CCCC1 [Compound 707, 4-oxo-N-(3-pyrrolidin-1-yl-4-tert-butyl-phenyl)-1H-quinoline-3-carboxamide]
< 10 µM | + (<25%) | CCc1cccc2c(=O)c(C(=O)Nc3ccc(C(C)C)cc3C(F)(F)F)c[nH]c12 [Compound 682, 8-ethyl-N-[4-isopropyl-2-(trifluoromethyl)phenyl]-4-oxo-1H-quinoline-3-carboxamide]
< 10 µM | ++ (between 25% to 100%) | CC(C)(C)c1cc(C(C)(C)C)c(NC(=O)c2c[nH]c3c(F)ccc(F)c3c2=O)cc1O [Compound 718, 5,8-difluoro-N-(5-hydroxy-2,4-ditert-butyl-phenyl)-4-oxo-1H-quinoline-3-carboxamide]
< 10 µM | ++ (between 25% to 100%) | O=C(Nc1ccccc1-c1csc2ccccc12)c1c[nH]c2ccccc2c1=O [Compound 417, N-(2-(benzo[b]thiophen-3-yl)phenyl)-1,4-dihydro-4-oxoquinoline-3-carboxamide]
< 10 µM | ++ (between 25% to 100%) | O=C(Nc1ccccc1-c1ccc(F)c(F)c1)c1c[nH]c2ccccc2c1=O [Compound 76, N-[2-(3,4-difluorophenyl)phenyl]-4-oxo-1H-quinoline-3-carboxamide]
10 to 25 µM | ++ (between 25% to 100%) | O=C(Nc1ccc2c(c1)NCCO2)c1c[nH]c2ccccc2c1=O [Compound 105, 1,4-dihydro-N-(3,4-dihydro-2H-benzo[b][1,4]oxazin-6-yl)-4-oxoquinoline-3-carboxamide]
< 10 µM | ++ (between 25% to 100%) | CN1CCC(C)(C)c2ccc(NC(=O)c3c[nH]c4ccccc4c3=O)cc21 [Compound 710, 4-oxo-N-(1,4,4-trimethyl-2,3-dihydroquinolin-7-yl)-1H-quinoline-3-carboxamide]
< 10 µM | ++ (between 25% to 100%) | CC(C)(C)c1cc(Cl)c(O)cc1NC(=O)c1c[nH]c2ccccc2c1=O [Compound 426, N-(4-chloro-5-hydroxy-2-tert-butyl-phenyl)-4-oxo-1H-quinoline-3-carboxamide]

SMILES | EC50 | % Activity
Cc1cccc2[nH]cc(C(=O)Nc3ccc(OC4CCCC4)cc3C(F)(F)F)c(=O)c12 [Compound 595, N-[4-cyclopentoxy-2-(trifluoromethyl)phenyl]-5-methyl-4-oxo-1H-quinoline-3-carboxamide] | < 10 µM | ++ (between 25% to 100%)
CC(C)(C)c1ccc(NC(=O)c2c[nH]c3ccccc3c2=O)cc1 [Compound 448, 4-oxo-N-(4-tert-butylphenyl)-1H-quinoline-3-carboxamide] | < 10 µM | ++ (between 25% to 100%)
